The values below come from US9884806B2, “Cyclic vinylogous amides as bromodomain inhibitors” (ICAHN SCHOOL OF MEDICINE AT MOUNT SINAI, priority 2013, dated 2018).

One data set addresses T1, BRD4_2 (Homo sapiens, UniProt O60885).
T1 construct: contains two tandem bromodomains (BrD1 and BrD2)
In words: Fluorescence anisotropy binding assay (competition with FITC-labeled MS417 probe), BRD4_2. To be noted: FITC-MS417 probe 80 nM, PBS pH 7.4, 1 hour, 25° C. For orientation: In fluorescence polarisation assays a small probe gives low polarisation when free and higher when bound to something large.

The target in data set [1] is T2, first bromodomain (BrD1) of human BRD4 (Homo sapiens, UniProt O60885).
T2 construct: the first bromodomain (BrD1) of human BRD4; poly-His (cleaved yes); made in house
In words: Fluorescence anisotropy binding assay (competition with FITC-labeled MS417 probe). To be noted: FITC-MS417 probe 80 nM, PBS pH 7.4, 1 hour, 25° C., read-out: BRD4_1 IC50. In a few lines:
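Competitive fluorescence anisotropy in PBS pH 7.4: 80 nM FITC-MS417 probe, 0.25 to 1 μM tag-cleaved BrD1, titrated unlabeled ligand, 1 hour at 25° C. IC50 values were fitted and converted to Ki using a corrected Cheng-Prusoff equation assuming one-site competition.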

With `CC1=C(Nc2cc(NC(=O)C3CCCCC3)ccc2Cl)CCC1=O` [Example 05-39, N-(4-chloro-3-[(2-methyl-3-oxocyclopent-1-en-1-yl)amino]phenyl)-cyclohexanecarboxamide], the melting point (usually the temperature of the solid-liquid transition) was 240 to 242 °C. Moreover, the IC50 (in general, the concentration that gives 50% inhibition) on BRD4_2 lay in the range of 1000 to 10000 nM. Besides, the concentration for half-maximal inhibition (IC50) in data set [1] was below 1000 nM.
For the compound `CC1=C(Nc2cc(NC(=O)c3cccc4ccccc34)ccc2Cl)CCC1=O` [Example 05-40, N-(4-chloro-3-[(2-methyl-3-oxocyclopent-1-en-1-yl)amino]phenyl)-naphthalene-1-carboxamide], the melting point lay in the range of 243 to 245 °C. The same compound had an IC50 at BRD4_2 below 1000 nM. In addition, the IC50 in data set [1] is below 1000 nM.
In the case of `CC1=C(Nc2ccc(NC(=O)c3ccccc3C)cc2Cl)CCC1=O` [Example 05-41, N-(3-chloro-4-((2-methyl-3-oxocyclopent-1-en-1-yl)amino)phenyl)-2-methylbenzamide], the melting point was in the range of 280 to 283 °C. On BRD4_2, this compound yielded an IC50 of 1000 to 10000 nM. In addition, in data set [1], the IC50 was below 1000 nM.
On the same counts, the results for `CC1=C(Nc2cccc(NC(=O)c3ccccc3C)c2Cl)CCC1=O` [Example 05-42, N-(2-chloro-3-((2-methyl-3-oxocyclopent-1-en-1-yl)amino)phenyl)-2-methylbenzamide] are 118 to 120 °C, 1000 to 10000 nM and below 1000 nM.
The like results for `COc1ccc(C(=O)Nc2ccc(Cl)c(NC3=C(C)C(=O)CCC3)c2)cc1` [Example 05-43, N-(4-chloro-3-((2-methyl-3-oxocyclohex-1-en-1-yl)amino)phenyl)-4-methoxybenzamide] were, in that order, 190 to 195 °C, above 10000 nM and above 10000 nM.
The like results for `CC1=C(Nc2cc(NC(=O)c3ccccc3C)ccc2Cl)CCCC1=O` [Example 05-44, N-(4-chloro-3-((2-methyl-3-oxocyclohex-1-en-1-yl)amino)phenyl)-2-methylbenzamide] were, in that order, 199 to 201 °C, 1000 to 10000 nM and below 1000 nM.
Turning to `CC1=C(Nc2cc(NC(=O)C3CCCCC3)ccc2Cl)CCCC1=O` [Example 05-45, N-(4-chloro-3-((2-methyl-3-oxocyclohex-1-en-1-yl)amino)phenyl)-cyclohexanecarboxamide], the melting point was in the range of 192 to 195 °C. At BRD4_2, this compound registered an IC50 of 1000 to 10000 nM. Moreover, in data set [1], the IC50 is below 1000 nM.
The like results for `CC1=C(Nc2cc(NC(=O)c3cccc4ccccc34)ccc2Cl)CCCC1=O` [Example 05-46, N-(4-chloro-3-((2-methyl-3-oxocyclohex-1-en-1-yl)amino)phenyl)-1-naphthamide] were, in that order, 245 to 247 °C, 1000 to 10000 nM and below 1000 nM.
In turn, `CC1=C(Nc2ccc(NC(=O)c3cccc4ccccc34)cc2Cl)CCCC1=O` [Example 05-47, N-(3-chloro-4-((2-methyl-3-oxocyclohex-1-en-1-yl)amino)phenyl)-1-naphthamide] returned a melting point of 245 to 247 °C. The compound also came in with an IC50 on BRD4_2 of 1000 to 10000 nM. The IC50 in data set [1] was below 1000 nM.
On the same counts, the results for `CC1=C(Nc2ccc(NC(=O)c3ccccc3C)cc2Cl)CCCC1=O` [Example 05-48, N-(3-chloro-4-((2-methyl-3-oxocyclohex-1-en-1-yl)amino)phenyl)-2-methylbenzamide] are 234 to 236 °C, 1000 to 10000 nM and below 1000 nM.
On the same counts, the results for `CC1=C(Nc2ccc(NC(=O)C3CCCCC3)cc2Cl)CCCC1=O` [Example 05-49, N-(3-chloro-4-((2-methyl-3-oxocyclohex-1-en-1-yl)amino)phenyl)-cyclohexanecarboxamide] are 248 to 250 °C, 1000 to 10000 nM and below 1000 nM.
On the same counts, the results for `CC1=C(Nc2cccc(NC(=O)C3CCCCC3)c2Cl)CCCC1=O` [Example 05-51, N-(2-chloro-3-((2-methyl-3-oxocyclohex-1-en-1-yl)amino)phenyl)-cyclohexanecarboxamide] are 205 to 208 °C, above 10000 nM and 1000 to 10000 nM.
Regarding `CC1=C(Nc2cccc(NC(=O)c3cccc4ccccc34)c2Cl)CCCC1=O` [Example 05-52, N-(2-chloro-3-((2-methyl-3-oxocyclohex-1-en-1-yl)amino)phenyl)-1-naphthamide], the melting point lay in the range of 178 to 180 °C. Also, the IC50 on BRD4_2 was 1000 to 10000 nM. Besides, the 50% inhibitory concentration (IC50) in data set [1] is below 1000 nM.
On the same counts, the results for `CC1=C(Nc2cc(NS(C)(=O)=O)ccc2Cl)CCC1=O` [Example 05-53, N-(4-chloro-3-((2-methyl-3-oxocyclopent-1-en-1-yl)amino)-phenyl)-methanesulfonamide] are 213 to 215 °C, 1000 to 10000 nM and 1000 to 10000 nM.
`CC1=C(Nc2cc(NS(=O)(=O)Cc3ccccc3)ccc2Cl)CCC1=O` [Example 05-54, N-(4-chloro-3-((2-methyl-3-oxocyclopent-1-en-1-yl)amino)phenyl)-1-phenylmethanesulfonamide] had a melting point of 196 to 198 °C. At BRD4_2, this compound came in with an IC50 below 1000 nM. The IC50 in data set [1] was below 1000 nM.
As for `CC1=C(Nc2cc(NS(=O)(=O)C3CCCCC3)ccc2Cl)CCC1=O` [Example 05-55, N-(4-chloro-3-((2-methyl-3-oxocyclopent-1-en-1-yl)amino)phenyl)-cyclohexanesulfonamide], the melting point was 158 to 160 °C. The IC50 at BRD4_2 is 1000 to 10000 nM. In addition, the IC50 in data set [1] was below 1000 nM.
On the same counts, the results for `CC1=C(Nc2cc(NS(=O)(=O)c3ccccc3F)ccc2Cl)CCC1=O` [Example 05-58, N-(4-chloro-3-((2-methyl-3-oxocyclopent-1-en-1-yl)amino)phenyl)-2-fluorobenzenesulfonamide] are 215 to 217 °C, below 1000 nM and below 1000 nM.
The like results for `CC1=C(Nc2cc(NS(=O)(=O)c3ccccc3C#N)ccc2Cl)CCC1=O` [Example 05-59, N-(4-chloro-3-((2-methyl-3-oxocyclopent-1-en-1-yl)amino)phenyl)-2-cyanobenzenesulfonamide] were, in that order, 235 to 238 °C, below 1000 nM and below 1000 nM.
The like results for `COc1ccccc1S(=O)(=O)Nc1ccc(Cl)c(NC2=C(C)C(=O)CC2)c1` [Example 05-60, N-(4-chloro-3-((2-methyl-3-oxocyclopent-1-en-1-yl)amino)phenyl)-2-methoxybenzenesulfonamide] were, in that order, 198 to 200 °C, below 1000 nM and below 1000 nM.
For `CC1=C(Nc2cc(NS(=O)(=O)N3CCCCC3)ccc2Cl)CCC1=O` [Example 05-61, N-(4-chloro-3-((2-methyl-3-oxocyclopent-1-en-1-yl)amino)phenyl)-piperidine-1-sulfonamide], the melting point lay in the range of 78 to 80 °C. Further, the IC50 on BRD4_2 is below 1000 nM. Besides, the IC50 in data set [1] was below 1000 nM.
The compound `CC1=C(Nc2cc(NS(=O)(=O)N3CCOCC3)ccc2Cl)CCC1=O` [Example 05-62, N-(4-chloro-3-((2-methyl-3-oxocyclopent-1-en-1-yl)amino)phenyl)-morpholine-4-sulfonamide] showed a melting point of 60 to 67 °C. The 50% inhibitory concentration (IC50) at BRD4_2 is 1000 to 10000 nM. For the same compound, the IC50 in data set [1] was below 1000 nM.
On to `CC1=C(Nc2ccc(NS(=O)(=O)c3ccccc3C)cc2Cl)CCC1=O` [Example 05-63, N-(3-chloro-4-((2-methyl-3-oxocyclopent-1-en-1-yl)amino)phenyl)-2-methylbenzenesulfonamide], for which the melting point lay in the range of 215 to 218 °C. This compound also gave an IC50 on BRD4_2 of 1000 to 10000 nM. Also, the IC50 in data set [1] was below 1000 nM.
Turning to `CC1=C(Nc2ccc(NS(=O)(=O)C3CCCCC3)cc2Cl)CCC1=O` [Example 05-64, N-(3-chloro-4-((2-methyl-3-oxocyclopent-1-en-1-yl)amino)phenyl)-cyclohexanesulfonamide], the melting point was 210 to 213 °C. Further, the IC50 at BRD4_2 lay in the range of 1000 to 10000 nM. Moreover, the IC50 in data set [1] was below 1000 nM.
Compound `CC1=C(Nc2cccc(NS(=O)(=O)c3ccccc3C)c2Cl)CCC1=O` [Example 05-65, N-(2-chloro-3-((2-methyl-3-oxocyclopent-1-en-1-yl)amino)phenyl)-2-methylbenzenesulfonamide] came in with a melting point of 75 to 77 °C. In addition, the IC50 at BRD4_2 was in the range of 1000 to 10000 nM. Besides, the IC50 in data set [1] is below 1000 nM.
The like results for `CC1=C(Nc2cc(NS(=O)(=O)C3CCCCC3)ccc2Cl)CCCC1=O` [Example 05-67, N-(4-chloro-3-((2-methyl-3-oxocyclohex-1-en-1-yl)amino)phenyl)-cyclohexanesulfonamide] were, in that order, 215 to 217 °C, below 1000 nM and below 1000 nM.
On the same counts, the results for `CC1=C(Nc2ccc(NS(=O)(=O)C3CCCCC3)cc2Cl)CCCC1=O` [Example 05-69, N-(3-chloro-4-((2-methyl-3-oxocyclohex-1-en-1-yl)amino)phenyl)-cyclohexanesulfonamide] are 230 to 232 °C, 1000 to 10000 nM and below 1000 nM.
On the same counts, the results for `CC1=C(Nc2cc(NCc3ccccc3C)ccc2Cl)CCCC1=O` [Example 05-72, 3-((2-chloro-5-((2-methylbenzyl)amino)phenyl)amino)-2-methylcyclohex-2-enone] are 158 to 160 °C, below 1000 nM and below 1000 nM.
